# Measured values as given in PMC12090182, “Repurposing of the RIPK1-Selective Benzo[1,4]oxazepin-4-one Scaffold for the Development of a Type III LIMK1/2 Inhibitor” (ACS Chemical Biology, 2025).
# Like-named read-outs stand apart in the source and are kept apart here.
# Tests used:
# Assay in all cases: biochemical
# Format in all cases: binding
# [1] = molecular target: 468 kinases including some pathogenic mutants (Homo sapiens, UniProt O15146); settings: MUSK (Entrez MUSK), 100 nM; read-out: Percent Control
# [2] = molecular target: 468 kinases including some pathogenic mutants (Homo sapiens, UniProt O75385); settings: ULK1 (Entrez ULK1), 1000 nM; read-out: Percent Control
# [3] = molecular target: 468 kinases including some pathogenic mutants (Homo sapiens, UniProt O95382); settings: ASK2 (Entrez MAP3K6), 100 nM; read-out: Percent Control
# [4] = molecular target: 468 kinases including some pathogenic mutants (Homo sapiens, UniProt P00533, DEL752-759); settings: read-out: Percent Control
# [5] = molecular target: 468 kinases including some pathogenic mutants (Homo sapiens, UniProt P06213); settings: INSR (Entrez INSR), 100 nM; read-out: Percent Control
# [6] = molecular target: 468 kinases including some pathogenic mutants (Homo sapiens, UniProt P07949, M918T); settings: read-out: Percent Control
# [7] = molecular target: 468 kinases including some pathogenic mutants (Homo sapiens, UniProt P08581); settings: MET (Entrez MET), 100 nM; read-out: Percent Control
# [8] = molecular target: 468 kinases including some pathogenic mutants (Homo sapiens, UniProt P0C264); settings: SgK110 (Entrez SgK110), 1000 nM; read-out: Percent Control
# Sequence of 468 kinases including some pathogenic mutants (Homo sapiens, UniProt P0C264) (P0C264 whole entry, stated change not applied): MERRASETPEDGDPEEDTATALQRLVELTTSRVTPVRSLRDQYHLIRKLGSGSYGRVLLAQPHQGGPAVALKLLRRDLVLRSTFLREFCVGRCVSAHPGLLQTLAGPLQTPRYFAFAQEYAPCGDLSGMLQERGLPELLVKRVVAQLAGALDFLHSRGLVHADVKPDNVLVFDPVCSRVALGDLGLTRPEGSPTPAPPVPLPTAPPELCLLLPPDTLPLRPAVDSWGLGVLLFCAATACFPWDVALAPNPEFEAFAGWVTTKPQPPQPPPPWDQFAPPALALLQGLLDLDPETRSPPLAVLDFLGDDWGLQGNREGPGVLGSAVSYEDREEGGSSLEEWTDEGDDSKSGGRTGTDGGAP
# [9] = molecular target: 468 kinases including some pathogenic mutants (Homo sapiens, UniProt P10721, A829P); settings: read-out: Percent Control
# [10] = molecular target: 468 kinases including some pathogenic mutants (Homo sapiens, UniProt P33981); settings: TTK (Entrez TTK), 100 nM; read-out: Percent Control
# [11] = molecular target: 468 kinases including some pathogenic mutants (Homo sapiens, UniProt P42336, E542K); settings: read-out: Percent Control
# [12] = molecular target: 468 kinases including some pathogenic mutants (Homo sapiens, UniProt P45984); settings: JNK2 (Entrez MAPK9), 100 nM; read-out: Percent Control
# [13] = molecular target: 468 kinases including some pathogenic mutants (Homo sapiens, UniProt Q05397); settings: FAK (Entrez PTK2), 100 nM; read-out: Percent Control
# [14] = molecular target: 468 kinases including some pathogenic mutants (Homo sapiens, UniProt Q12852); settings: DLK (Entrez MAP3K12), 100 nM; read-out: Percent Control
# Sequence of 468 kinases including some pathogenic mutants (Homo sapiens, UniProt Q12852) (Q12852 whole entry, change not shown): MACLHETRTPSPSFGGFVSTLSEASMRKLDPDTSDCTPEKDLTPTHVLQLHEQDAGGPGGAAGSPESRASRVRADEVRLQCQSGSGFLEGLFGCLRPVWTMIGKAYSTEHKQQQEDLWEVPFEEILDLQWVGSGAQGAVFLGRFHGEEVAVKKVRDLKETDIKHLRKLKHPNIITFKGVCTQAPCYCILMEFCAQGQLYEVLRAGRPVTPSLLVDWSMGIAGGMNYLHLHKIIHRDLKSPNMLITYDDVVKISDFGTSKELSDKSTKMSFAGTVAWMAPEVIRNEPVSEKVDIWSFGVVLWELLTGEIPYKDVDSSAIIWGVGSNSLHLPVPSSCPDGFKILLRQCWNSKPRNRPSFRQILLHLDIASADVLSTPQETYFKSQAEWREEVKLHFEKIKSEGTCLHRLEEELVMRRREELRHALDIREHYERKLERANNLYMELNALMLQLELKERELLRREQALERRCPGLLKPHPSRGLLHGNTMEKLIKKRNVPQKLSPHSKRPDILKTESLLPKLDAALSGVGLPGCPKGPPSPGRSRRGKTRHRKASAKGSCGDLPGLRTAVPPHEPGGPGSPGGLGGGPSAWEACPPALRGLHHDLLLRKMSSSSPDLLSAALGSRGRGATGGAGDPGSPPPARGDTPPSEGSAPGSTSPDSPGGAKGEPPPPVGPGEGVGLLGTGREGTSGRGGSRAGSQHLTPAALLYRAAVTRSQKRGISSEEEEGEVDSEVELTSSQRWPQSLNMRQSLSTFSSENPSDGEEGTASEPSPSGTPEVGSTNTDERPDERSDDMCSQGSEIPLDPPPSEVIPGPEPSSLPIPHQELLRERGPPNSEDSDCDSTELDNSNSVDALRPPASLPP
# [15] = molecular target: 468 kinases including some pathogenic mutants (Homo sapiens, UniProt Q13882); settings: BRK (Entrez PTK6), 100 nM; read-out: Percent Control
# [16] = molecular target: 468 kinases including some pathogenic mutants (Homo sapiens, UniProt Q86Z02); settings: HIPK1 (Entrez HIPK1), 100 nM; read-out: Percent Control
# Sequence of 468 kinases including some pathogenic mutants (Homo sapiens, UniProt Q86Z02) (Q86Z02 whole entry, change not shown): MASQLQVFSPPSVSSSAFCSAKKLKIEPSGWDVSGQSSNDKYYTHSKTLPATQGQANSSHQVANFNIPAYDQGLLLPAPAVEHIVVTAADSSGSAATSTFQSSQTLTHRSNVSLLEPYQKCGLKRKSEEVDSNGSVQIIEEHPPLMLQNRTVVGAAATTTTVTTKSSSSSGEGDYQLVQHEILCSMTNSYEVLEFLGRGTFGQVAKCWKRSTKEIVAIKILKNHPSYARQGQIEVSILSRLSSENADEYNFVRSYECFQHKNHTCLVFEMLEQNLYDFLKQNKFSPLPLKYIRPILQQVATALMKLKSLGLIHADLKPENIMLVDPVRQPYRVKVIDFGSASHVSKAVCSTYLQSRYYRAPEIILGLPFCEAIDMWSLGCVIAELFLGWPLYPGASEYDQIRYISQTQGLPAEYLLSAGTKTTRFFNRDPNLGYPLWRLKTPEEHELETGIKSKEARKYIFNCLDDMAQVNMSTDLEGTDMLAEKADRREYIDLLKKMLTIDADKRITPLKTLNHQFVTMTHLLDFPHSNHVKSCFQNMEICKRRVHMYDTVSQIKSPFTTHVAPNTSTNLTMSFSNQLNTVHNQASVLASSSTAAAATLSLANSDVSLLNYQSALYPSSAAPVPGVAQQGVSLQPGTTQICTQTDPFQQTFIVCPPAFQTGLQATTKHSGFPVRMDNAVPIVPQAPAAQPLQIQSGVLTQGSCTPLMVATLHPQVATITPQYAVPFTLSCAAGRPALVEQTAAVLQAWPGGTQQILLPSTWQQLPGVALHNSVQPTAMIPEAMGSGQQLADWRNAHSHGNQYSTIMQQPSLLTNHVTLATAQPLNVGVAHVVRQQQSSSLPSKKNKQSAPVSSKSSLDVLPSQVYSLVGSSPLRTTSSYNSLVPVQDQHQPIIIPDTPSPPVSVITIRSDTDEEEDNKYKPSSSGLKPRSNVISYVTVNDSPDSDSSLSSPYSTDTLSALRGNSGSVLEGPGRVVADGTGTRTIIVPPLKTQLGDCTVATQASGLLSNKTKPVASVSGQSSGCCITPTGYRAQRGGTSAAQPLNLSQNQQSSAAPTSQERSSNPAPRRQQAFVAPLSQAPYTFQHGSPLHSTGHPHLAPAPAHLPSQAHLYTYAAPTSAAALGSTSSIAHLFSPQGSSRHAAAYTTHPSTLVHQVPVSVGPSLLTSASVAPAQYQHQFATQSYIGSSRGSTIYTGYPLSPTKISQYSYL
# [17] = molecular target: 468 kinases including some pathogenic mutants (Homo sapiens, UniProt Q96BR1); settings: SGK3 (Entrez SGK3), 100 nM; read-out: Percent Control
# [18] = molecular target: 468 kinases including some pathogenic mutants (Homo sapiens, UniProt Q96L34); settings: MARK4 (Entrez MARK4), 1000 nM; read-out: Percent Control
# Sequence of 468 kinases including some pathogenic mutants (Homo sapiens, UniProt Q96L34) (Q96L34 whole entry, change not shown): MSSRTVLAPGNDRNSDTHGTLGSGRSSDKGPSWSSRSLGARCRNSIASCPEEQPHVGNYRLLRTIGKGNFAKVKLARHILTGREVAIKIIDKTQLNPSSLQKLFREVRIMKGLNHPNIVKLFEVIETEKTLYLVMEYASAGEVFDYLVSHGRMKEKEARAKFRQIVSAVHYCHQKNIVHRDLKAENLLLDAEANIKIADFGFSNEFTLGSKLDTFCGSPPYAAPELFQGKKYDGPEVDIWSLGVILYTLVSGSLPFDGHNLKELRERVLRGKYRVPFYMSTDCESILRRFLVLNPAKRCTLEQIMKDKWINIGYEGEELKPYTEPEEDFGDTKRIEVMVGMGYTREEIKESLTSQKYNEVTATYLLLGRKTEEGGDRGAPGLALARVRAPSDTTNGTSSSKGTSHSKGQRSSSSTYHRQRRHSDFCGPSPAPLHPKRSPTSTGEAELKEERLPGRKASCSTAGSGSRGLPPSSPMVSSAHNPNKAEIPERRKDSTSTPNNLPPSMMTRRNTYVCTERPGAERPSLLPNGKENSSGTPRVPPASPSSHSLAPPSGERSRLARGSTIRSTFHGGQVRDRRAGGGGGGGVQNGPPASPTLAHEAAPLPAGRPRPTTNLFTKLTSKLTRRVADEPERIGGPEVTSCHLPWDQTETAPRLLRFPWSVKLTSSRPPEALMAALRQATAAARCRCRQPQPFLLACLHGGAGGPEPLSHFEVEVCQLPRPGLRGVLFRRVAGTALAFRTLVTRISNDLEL
# [19] = molecular target: 468 kinases including some pathogenic mutants (Homo sapiens, UniProt Q9BRS2); settings: RIOK1 (Entrez RIOK1), 100 nM; read-out: Percent Control
# [20] = molecular target: 468 kinases including some pathogenic mutants (Homo sapiens, UniProt Q9BUB5); settings: MKNK1 (Entrez MKNK1), 100 nM; read-out: Percent Control
# [21] = molecular target: 468 kinases including some pathogenic mutants (Homo sapiens, UniProt Q9BXA7); settings: TSSK1B (Entrez TSSK1B), 100 nM; read-out: Percent Control
# [22] = molecular target: 468 kinases including some pathogenic mutants (Homo sapiens, UniProt Q9BYT3); settings: STK33 (Entrez STK33), 1000 nM; read-out: Percent Control
# [23] = molecular target: 468 kinases including some pathogenic mutants (Homo sapiens, UniProt Q9H093); settings: SNARK (Entrez NUAK2), 100 nM; read-out: Percent Control
# Sequence of 468 kinases including some pathogenic mutants (Homo sapiens, UniProt Q9H093) (Q9H093 whole entry, change not shown): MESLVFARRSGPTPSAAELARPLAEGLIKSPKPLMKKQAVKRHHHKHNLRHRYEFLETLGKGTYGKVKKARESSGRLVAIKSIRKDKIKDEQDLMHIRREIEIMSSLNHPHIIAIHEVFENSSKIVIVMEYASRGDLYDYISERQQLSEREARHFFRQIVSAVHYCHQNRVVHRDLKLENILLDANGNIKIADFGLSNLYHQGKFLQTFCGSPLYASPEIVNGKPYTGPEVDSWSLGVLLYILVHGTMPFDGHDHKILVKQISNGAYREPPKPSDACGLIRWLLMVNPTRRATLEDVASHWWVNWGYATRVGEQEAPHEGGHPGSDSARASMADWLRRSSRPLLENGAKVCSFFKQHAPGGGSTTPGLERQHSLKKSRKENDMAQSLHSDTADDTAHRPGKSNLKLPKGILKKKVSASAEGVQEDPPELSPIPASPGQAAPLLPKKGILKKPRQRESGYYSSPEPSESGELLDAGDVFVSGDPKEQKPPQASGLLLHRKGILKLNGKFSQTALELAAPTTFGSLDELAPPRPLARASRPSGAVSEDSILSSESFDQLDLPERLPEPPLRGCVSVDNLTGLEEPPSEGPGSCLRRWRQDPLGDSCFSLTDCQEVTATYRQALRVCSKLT
# [24] = molecular target: 468 kinases including some pathogenic mutants (Homo sapiens, UniProt Q9H2K8); settings: TAOK3 (Entrez TAOK3), 100 nM; read-out: Percent Control
# [25] = molecular target: 468 kinases including some pathogenic mutants (Homo sapiens, UniProt Q9HBY8); settings: SGK2 (Entrez SGK2), 100 nM; read-out: Percent Control
# Sequence of 468 kinases including some pathogenic mutants (Homo sapiens, UniProt Q9HBY8) (Q9HBY8 whole entry, change not shown): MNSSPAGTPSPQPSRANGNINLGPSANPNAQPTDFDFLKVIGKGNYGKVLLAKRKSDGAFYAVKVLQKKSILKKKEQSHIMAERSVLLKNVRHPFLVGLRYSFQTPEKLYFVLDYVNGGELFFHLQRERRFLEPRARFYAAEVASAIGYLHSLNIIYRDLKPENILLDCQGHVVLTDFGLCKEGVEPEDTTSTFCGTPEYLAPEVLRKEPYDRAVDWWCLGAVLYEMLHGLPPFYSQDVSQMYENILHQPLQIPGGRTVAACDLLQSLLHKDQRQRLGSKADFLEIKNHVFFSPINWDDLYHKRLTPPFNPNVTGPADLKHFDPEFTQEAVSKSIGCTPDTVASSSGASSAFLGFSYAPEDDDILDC
# [26] = molecular target: 468 kinases including some pathogenic mutants (Homo sapiens, UniProt Q9HCP0); settings: CSNK1G1 (Entrez CSNK1G1), 100 nM; read-out: Percent Control
# [27] = molecular target: 468 kinases including some pathogenic mutants (Homo sapiens, UniProt Q9NYY3); settings: PLK2 (Entrez PLK2), 1000 nM; read-out: Percent Control
# [28] = molecular target: 468 kinases including some pathogenic mutants (Homo sapiens, UniProt Q9P0L2); settings: MARK1 (Entrez MARK1), 1000 nM; read-out: Percent Control
# Sequence of 468 kinases including some pathogenic mutants (Homo sapiens, UniProt Q9P0L2) (Q9P0L2 whole entry, change not shown): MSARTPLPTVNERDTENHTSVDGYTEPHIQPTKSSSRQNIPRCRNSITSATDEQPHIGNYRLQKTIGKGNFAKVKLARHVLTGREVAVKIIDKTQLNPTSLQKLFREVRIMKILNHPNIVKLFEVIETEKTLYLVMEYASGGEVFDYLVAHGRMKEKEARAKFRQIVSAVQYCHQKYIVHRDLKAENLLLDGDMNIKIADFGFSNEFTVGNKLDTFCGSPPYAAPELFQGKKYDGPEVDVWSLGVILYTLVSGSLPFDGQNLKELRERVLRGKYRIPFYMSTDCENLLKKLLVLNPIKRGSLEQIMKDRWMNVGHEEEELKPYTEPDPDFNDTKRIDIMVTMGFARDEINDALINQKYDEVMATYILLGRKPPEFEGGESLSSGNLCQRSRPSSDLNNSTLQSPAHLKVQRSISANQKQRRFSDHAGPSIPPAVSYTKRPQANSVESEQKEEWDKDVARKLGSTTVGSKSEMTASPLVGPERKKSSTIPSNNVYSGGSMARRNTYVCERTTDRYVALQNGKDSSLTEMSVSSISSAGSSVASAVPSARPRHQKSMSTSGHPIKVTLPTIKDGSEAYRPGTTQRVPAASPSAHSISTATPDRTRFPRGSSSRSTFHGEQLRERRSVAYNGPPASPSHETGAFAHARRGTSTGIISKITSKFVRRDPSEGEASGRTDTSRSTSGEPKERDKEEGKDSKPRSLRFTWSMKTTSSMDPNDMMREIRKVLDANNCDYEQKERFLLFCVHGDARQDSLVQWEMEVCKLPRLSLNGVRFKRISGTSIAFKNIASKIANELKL
# [29] = system: 468 kinases including some pathogenic mutants
smiles,measurement,setting,value
"CN1C(=O)[C@@H](N2CCc3c(nn(Cc4ccccc4)c3C(N)=O)C2=O)COc2cc(Cl)ccc21 [Compound 10, (S)-2-benzyl-6-(8-chloro-5-methyl-4-oxo-2,3,4,5-tetrahydrobenzo[b][1,4]oxazepin-3-yl)-7-oxo-4,5,6,7-tetrahydro-2H-pyrazolo[3,4-c]pyridine-3-carboxamide]",remaining activity at 0.1 µM,[1],94%
same,remaining activity at 1 µM,[2],100%
same,remaining activity at 0.1 µM,[3],76%
same,remaining activity at 0.1 µM,[4],100%
same,remaining activity at 0.1 µM,[5],100%
same,remaining activity at 0.1 µM,[6],82%
same,remaining activity at 0.1 µM,[7],99%
same,remaining activity at 1 µM,[8],100%
same,remaining activity at 1 µM,[9],100%
same,remaining activity at 0.1 µM,[10],82%
same,remaining activity at 0.1 µM,[11],62%
same,remaining activity at 0.1 µM,[12],80%
same,remaining activity at 0.1 µM,[13],82%
same,remaining activity at 0.1 µM,[14],72%
same,remaining activity at 0.1 µM,[15],81%
same,remaining activity at 0.1 µM,[16],73%
same,remaining activity at 0.1 µM,[17],90%
same,remaining activity at 1 µM,[18],100%
same,remaining activity at 0.1 µM,[19],63%
same,remaining activity at 0.1 µM,[20],85%
same,remaining activity at 0.1 µM,[21],83%
same,remaining activity at 1 µM,[22],100%
same,remaining activity at 0.1 µM,[23],84%
same,remaining activity at 0.1 µM,[24],71%
same,remaining activity at 0.1 µM,[25],75%
same,remaining activity at 0.1 µM,[26],80%
same,remaining activity at 1 µM,[27],100%
same,remaining activity at 1 µM,[28],100%
same,Percent Control,[29],100%
same,Percent Control,"[29]; FLT3(ITD) (Entrez FLT3), 100 nM",54%
